Blank lines part the entries; values can stand above or below the compound they belong to.
How the values were obtained:
[1] = test system: secretion of gastric acid; test: Anti-ulcerative effect, inhibition of gastric acid secretion and effect on other gastro-intestinal diseases (general statement); assay type: in vivo; details: for physiological/biological effectiveness: statement in words
[2] = test system: volume and total acid secretion; test: Effect on rats after ligature of the pylorus (gastric juice volume and total acid); assay type: in vivo, Male Wistar rats; details: rat, i.v.; for ED50 value: given immediately before pylorus ligature, 2 hours, 120 min
Description: Effect on rats after ligature of the pylorus
Male Wistar rats (weighing between 100 and 125 g) which had fasted for 24 hours but had free access to water was used. The rats were divided up into groups of 10 animals. The rats were anaesthetised with ether and the abdominal cavity was opened up by longitudinal cutting and the pylorus was tied off. Before ligature of the pylorus, the substances dissolved in saline solution were administered intravenously in metered doses (0.1 ml/100 g of body weight), the intravenous administration was carried out immediately before ligature of the pylorus; control animals were given only the saline solution. Two hours after the ligature the animals were killed and the stomachs were carefully removed. The stomach contents were collected and centrifuged for 15 minutes at 4000 rpm, then the supernatant was separated off in order to determine the volume of gastric juices. Using a pH measuring apparatus (I.T.T. Radiometer PHM 62) the acidity was measured by titration to pH 7 of 1 ml samples of the gastric juices.
The total acid was calculated from the product of the measured volume and acidity (microequivalent.ml) and expressed as microequivalents over 2 or 4 hours. The data obtained from the individual pretreated rats were compared with the average values obtained from the control groups and expressed as the percentage deviation. The percentage values were transformed into probits and subjected to linear regression analysis in order to determine the ED50 values for volume and total acid secretion, whilst observing 95% confidence limits.

Racemisation Test = assay type: physicochemical
[3] = ambient temperature; Arzneim.-Forsch./Drug Res. 34(II), 8, 849-859 (1984); cited from earlier work
[4] = pH 1 to 9, water, glycol, melt, up to 150° C., fifteen minutes

formation of (-) enantiomer (HPLC) (Racemisation Test; [4]): no (-) enantiomer had formed
optical rotation on heating (Racemisation Test; [4]): remained constant
racemisation (Racemisation Test; [4]): no racemisation
SMILES: CN1CCC(CC(=O)N2c3ccccc3C(=O)Nc3cccc(Cl)c32)CC1 [(+) form, (+)-6-Chloro-5,10-dihydro-5-[(1-methyl-4-piperidinyl)-acetyl]-11H-dibenzo[b,e][1,4]diazepin-11-one]
dosage needed to achieve the same results, relative to the mixture of enantiomers ([1]; compared with the mixture of enantiomers): approximately only half the dosage
effect on various other diseases of the gastro-intestinal tract ([1]; particularly low bowel distress symptoms): favourable effect on various other diseases of the gastro-intestinal tract
physiological/biological effectiveness [1]: physiologically highly effective
physiological/biological effectiveness ([1]; listed as Ia): biologically effective form
anti-ulcerative effect ([1]; unlike the (-) form): Powerful anti-ulcerative effect
effect on the secretion of gastric acid ([1]; unlike the (-) form): inhibitory effect on the secretion of gastric acid
ED50 value [2]: 0.18 mg/kg
activity in the pylorus ligature experiment ([2]; conclusion in words): the form which carries the activity

SMILES: CN1CCC(CC(=O)N2c3ccccc3C(=O)Nc3cccc(Cl)c32)CC1 [(-) form]
quantity required to achieve the same results ([1]; (-) form, to achieve the same results): at least 50 times
deviation from the average values of untreated control groups ([2]; 3 mg/kg): 1.6%
ED50 value [2]: > 3 mg/kg

stability of enantiomeric forms (Racemisation Test; ambient temperature): stable at ambient temperature
SMILES: CN1CCC(CC(=O)N2c3ccccc3C(=O)Nc3cccc(Cl)c32)CC1 [formula I, 6-chloro-5,10-dihydro-5-[(1-methyl-4-piperidinyl)-acetyl]-11H-dibenzo[b,e][1,4]diazepin-11-one]

SMILES: CN1CCN(CC(=O)N2c3ccccc3C(=O)Nc3cccnc32)CC1 [pirenzepine]
interconversion of enantiomeric forms [3]: rapidly interconvert

From patent US4668674A, “(+)-6-chloro-5,10-dihy dro-5-[(1-methyl-4-piperidinyl)-acetyl]-11H-dibenzo[b,][1,4]diazepin-11-o ne, the isolation thereof and its use as a pharmaceutical material” (Dr. Karl Thomae GmbH, priority 1985, dated 1987)
